This is an account of results in ChEMBL document CHEMBL4196115 (ACS Med Chem Lett, 2018).

pIC50: −log10 of the molar value. In brackets after ≈: the same amount, converted by molar mass.

In data set [1] the target is T1, Muscarinic acetylcholine receptor M1 (Homo sapiens) (UniProt P11229).
T1 sequence (whole entry): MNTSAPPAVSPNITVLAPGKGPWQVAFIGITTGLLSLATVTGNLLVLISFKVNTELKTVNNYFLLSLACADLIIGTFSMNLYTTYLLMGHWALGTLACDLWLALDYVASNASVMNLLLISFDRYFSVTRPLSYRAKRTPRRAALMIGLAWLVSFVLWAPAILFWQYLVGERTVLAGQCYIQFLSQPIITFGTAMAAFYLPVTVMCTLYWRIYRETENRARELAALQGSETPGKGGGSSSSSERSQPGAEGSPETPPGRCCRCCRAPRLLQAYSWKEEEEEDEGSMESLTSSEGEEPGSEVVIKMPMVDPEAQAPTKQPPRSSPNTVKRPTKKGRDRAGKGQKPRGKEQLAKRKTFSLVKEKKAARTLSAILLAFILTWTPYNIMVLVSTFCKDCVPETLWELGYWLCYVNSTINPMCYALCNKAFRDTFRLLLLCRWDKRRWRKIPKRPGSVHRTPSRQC
Briefly: Positive allosteric modulation of human muscarinic acetylcholine receptor M1 expressed in CHO cells assessed as increase in acetylcholine-induced calcium mobilization pretreated for 4 mins followed by acetylcholine addition and measured after 4 mins by Fluo-4-AM dye based FLIPR assay. The data set is classed as functional, cell-based. On the technique in general: Calcium flux is commonly read through the fluorescence of an indicator in the cells.

Data set [2] is described as follows: Kinetic solubility of the compound at pH 7. The data set is classed as physicochemical. To be noted: buffer, read-out: Kinetic_solubility.
For data set [3], the target named is Voltage-gated inwardly rectifying potassium channel KCNH2 (Homo sapiens, UniProt Q12809).
Sequence of Voltage-gated inwardly rectifying potassium channel KCNH2 (Q12809 whole entry): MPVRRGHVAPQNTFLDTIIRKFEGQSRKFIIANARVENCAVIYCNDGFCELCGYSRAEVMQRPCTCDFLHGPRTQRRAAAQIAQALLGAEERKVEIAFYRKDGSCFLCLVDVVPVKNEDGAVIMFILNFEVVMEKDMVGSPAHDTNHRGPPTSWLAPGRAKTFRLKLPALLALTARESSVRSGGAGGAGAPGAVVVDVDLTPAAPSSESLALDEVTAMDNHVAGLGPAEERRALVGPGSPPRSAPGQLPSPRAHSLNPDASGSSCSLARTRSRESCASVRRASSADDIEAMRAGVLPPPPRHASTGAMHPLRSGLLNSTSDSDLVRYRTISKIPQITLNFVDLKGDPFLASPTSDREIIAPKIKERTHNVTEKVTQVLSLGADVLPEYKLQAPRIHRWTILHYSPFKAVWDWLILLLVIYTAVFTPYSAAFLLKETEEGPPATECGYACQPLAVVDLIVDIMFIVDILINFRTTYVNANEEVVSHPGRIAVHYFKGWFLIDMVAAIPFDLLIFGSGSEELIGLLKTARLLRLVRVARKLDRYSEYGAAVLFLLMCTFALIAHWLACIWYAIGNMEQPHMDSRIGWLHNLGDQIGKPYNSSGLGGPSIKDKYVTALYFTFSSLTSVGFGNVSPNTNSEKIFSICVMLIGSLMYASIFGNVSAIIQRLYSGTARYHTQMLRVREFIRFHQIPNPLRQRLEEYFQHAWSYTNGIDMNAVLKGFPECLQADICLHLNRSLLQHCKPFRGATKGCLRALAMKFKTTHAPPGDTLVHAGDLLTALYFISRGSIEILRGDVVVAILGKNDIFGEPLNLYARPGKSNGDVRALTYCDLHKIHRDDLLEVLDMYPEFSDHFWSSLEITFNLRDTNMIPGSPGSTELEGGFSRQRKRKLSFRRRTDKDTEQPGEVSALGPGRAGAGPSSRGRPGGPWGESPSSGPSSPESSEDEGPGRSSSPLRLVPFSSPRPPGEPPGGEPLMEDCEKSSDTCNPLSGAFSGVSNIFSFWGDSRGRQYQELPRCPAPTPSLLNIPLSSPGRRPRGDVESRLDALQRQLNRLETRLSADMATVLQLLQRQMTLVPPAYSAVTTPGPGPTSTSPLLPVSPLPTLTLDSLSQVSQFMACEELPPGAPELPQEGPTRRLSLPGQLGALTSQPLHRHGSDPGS
Data set [4] is described as follows: Ratio of total drug level in cerebrospinal fluid to unbound plasma concentration in Sprague-Dawley rat at 10 mg/kg, po. The data set is classed as ADME, organism-based, CSF/Plasma. To be noted: in vivo.
Data set [5] is described as follows: Kinetic solubility of the compound at pH 2. The data set is classed as physicochemical. To be noted: buffer, read-out: Kinetic_solubility.
The nature of data set [6]: Lipophilicity, log D of the compound by HPLC method. The data set is classed as physicochemical.
Data set [7] is described as follows: Equilibrium solubility of the compound in simulated gastric fluid using crystalline compound. The data set is classed as physicochemical.
Data set [8] is described as follows: Equilibrium solubility of the compound in fasted state simulated intestinal fluid using crystalline compound. The data set is classed as physicochemical.
Data set [9] concerns the target T2, Polyunsaturated fatty acid 5-lipoxygenase (Homo sapiens, UniProt P09917).
T2 sequence (P09917 whole entry): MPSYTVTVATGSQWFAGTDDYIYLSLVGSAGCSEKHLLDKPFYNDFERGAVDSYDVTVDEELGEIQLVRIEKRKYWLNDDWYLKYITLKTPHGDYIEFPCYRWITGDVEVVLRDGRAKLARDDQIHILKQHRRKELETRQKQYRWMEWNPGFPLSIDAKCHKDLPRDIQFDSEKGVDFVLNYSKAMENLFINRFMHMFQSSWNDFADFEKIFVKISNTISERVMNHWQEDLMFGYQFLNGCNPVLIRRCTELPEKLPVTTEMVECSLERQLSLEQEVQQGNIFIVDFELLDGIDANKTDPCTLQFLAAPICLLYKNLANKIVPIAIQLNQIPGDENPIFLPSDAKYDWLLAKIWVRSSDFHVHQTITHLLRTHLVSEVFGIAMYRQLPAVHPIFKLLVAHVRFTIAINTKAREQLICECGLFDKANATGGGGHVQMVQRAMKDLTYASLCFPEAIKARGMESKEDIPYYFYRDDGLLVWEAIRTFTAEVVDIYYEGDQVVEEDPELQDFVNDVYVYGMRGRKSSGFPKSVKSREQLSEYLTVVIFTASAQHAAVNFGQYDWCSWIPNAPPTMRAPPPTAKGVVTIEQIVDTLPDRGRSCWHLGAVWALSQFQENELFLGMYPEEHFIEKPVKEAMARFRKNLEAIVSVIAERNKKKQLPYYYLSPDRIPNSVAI
Briefly: Inhibition of recombinant human 5-LOX using arachidonic acid as substrate measured after 5 mins by fluorescence assay.

Data set [10] is described as follows: Volume of distribution at steady state in Sprague-Dawley rat at 10 mg/kg, po or 2 mg/kg, iv. The data set is classed as ADME, organism-based. To be noted: in vivo, read-out: Vdss.
Data set [11] in a line: Volume of distribution at steady state in Mongrel dog at 3 mg/kg, po or 1 mg/kg, iv. The data set is classed as ADME, organism-based, Canis lupus familiaris. To be noted: in vivo, read-out: Vdss.
Data set [12] can be described thus: Volume of distribution at steady state in rhesus monkey at 1 mg/kg, po or 0.5 mg/kg, iv. To be noted: in vivo, read-out: Vdss. The data set is classed as ADME, organism-based, Macaca mulatta.
Data set [13] can be described thus: Terminal half life in Sprague-Dawley rat at 10 mg/kg, po or 2 mg/kg, iv. To be noted: in vivo, read-out: beta t1/2 (converted). The data set is classed as ADME, organism-based.
The target of the next data set is Cytochrome P450 2C9 (Homo sapiens, UniProt P11712). The data set is described as follows: Competitive reversible inhibition of CYP2C9 (unknown origin). The data set is classed as ADME.
Sequence of Cytochrome P450 2C9 (P11712 whole entry): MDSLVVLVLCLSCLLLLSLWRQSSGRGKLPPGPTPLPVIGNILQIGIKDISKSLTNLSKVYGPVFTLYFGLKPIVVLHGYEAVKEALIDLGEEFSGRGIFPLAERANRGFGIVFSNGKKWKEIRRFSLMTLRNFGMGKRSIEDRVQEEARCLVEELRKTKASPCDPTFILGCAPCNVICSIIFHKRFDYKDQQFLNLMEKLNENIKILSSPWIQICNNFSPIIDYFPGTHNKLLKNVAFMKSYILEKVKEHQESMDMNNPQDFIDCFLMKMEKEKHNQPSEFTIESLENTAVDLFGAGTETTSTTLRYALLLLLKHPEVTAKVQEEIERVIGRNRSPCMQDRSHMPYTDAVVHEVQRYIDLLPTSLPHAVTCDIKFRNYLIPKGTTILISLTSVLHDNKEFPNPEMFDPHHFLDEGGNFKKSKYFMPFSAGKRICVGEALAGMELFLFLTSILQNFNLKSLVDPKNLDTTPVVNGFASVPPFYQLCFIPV
Data set [14] is described as follows: Clearance in Sprague-Dawley rat at 10 mg/kg, po or 2 mg/kg, iv. The data set is classed as ADME, organism-based. To be noted: in vivo.
Data set [15] is described as follows: Oral bioavailability in Sprague-Dawley rat at 10 mg/kg. The data set is classed as ADME, organism-based. To be noted: in vivo.
Data set [16] can be described thus: Oral bioavailability in rhesus monkey at 1 mg/kg. To be noted: in vivo. The data set is classed as ADME, organism-based, Macaca mulatta.
A short description of data set [17]: Terminal half life in rhesus monkey at 1 mg/kg, po or 0.5 mg/kg, iv. To be noted: in vivo, read-out: beta t1/2 (converted). The data set is classed as ADME, organism-based, Macaca mulatta.
Data set [18] can be described thus: Inhibition of PDE4 (unknown origin). Also noted: species or system Homo sapiens.
Data set [19] in a line: Intrinsic clearance in human microsomes. The data set is classed as ADME, Microsome.
Data set [20] in a line: Terminal half life in Mongrel dog at 3 mg/kg, po or 1 mg/kg, iv. The data set is classed as ADME, organism-based, Canis lupus familiaris. To be noted: in vivo, read-out: beta t1/2 (converted).
The target in data set [21] is T3, MDR1 (P-gp, ABCB1) (Homo sapiens, UniProt P08183). Briefly: Substrate activity at MDR1 (unknown origin) assessed as apparent permeability. To be noted: not told. The data set is classed as ADME.
T3 sequence (P08183 whole entry): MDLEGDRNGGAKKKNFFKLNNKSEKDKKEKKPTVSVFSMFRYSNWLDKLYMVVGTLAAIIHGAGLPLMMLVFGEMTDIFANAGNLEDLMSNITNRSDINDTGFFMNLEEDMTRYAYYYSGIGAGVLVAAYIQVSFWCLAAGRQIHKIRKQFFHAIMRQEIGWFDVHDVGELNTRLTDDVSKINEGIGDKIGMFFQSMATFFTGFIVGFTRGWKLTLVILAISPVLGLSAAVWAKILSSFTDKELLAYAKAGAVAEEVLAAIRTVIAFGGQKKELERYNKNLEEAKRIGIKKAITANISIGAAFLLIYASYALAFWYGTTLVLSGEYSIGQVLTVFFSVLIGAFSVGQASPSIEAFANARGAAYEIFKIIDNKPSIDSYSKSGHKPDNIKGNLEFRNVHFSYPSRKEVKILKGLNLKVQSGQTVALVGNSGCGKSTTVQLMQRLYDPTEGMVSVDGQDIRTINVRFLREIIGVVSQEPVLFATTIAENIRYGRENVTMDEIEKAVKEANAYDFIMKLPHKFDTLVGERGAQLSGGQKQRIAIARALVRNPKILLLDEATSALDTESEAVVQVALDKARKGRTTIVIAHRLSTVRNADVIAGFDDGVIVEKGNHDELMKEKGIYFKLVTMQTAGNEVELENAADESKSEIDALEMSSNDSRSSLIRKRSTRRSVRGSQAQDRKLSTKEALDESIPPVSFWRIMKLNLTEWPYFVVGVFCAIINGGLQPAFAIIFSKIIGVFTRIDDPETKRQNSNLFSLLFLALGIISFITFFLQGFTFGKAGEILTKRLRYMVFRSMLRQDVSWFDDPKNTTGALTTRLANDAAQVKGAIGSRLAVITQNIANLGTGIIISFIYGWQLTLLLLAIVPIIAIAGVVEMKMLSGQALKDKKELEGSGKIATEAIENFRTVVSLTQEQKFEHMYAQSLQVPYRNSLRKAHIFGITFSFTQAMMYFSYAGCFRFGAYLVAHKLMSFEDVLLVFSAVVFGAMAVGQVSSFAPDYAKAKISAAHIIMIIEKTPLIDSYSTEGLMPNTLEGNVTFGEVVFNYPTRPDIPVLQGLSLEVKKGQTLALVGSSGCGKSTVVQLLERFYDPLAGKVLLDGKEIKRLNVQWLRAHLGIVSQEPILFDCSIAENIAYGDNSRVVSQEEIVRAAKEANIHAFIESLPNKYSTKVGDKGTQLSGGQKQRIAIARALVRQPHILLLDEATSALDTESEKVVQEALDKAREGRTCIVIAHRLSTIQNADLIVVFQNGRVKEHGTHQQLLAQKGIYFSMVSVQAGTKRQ
Another data set concerns the target Cytochrome P450 3A4 (Homo sapiens, UniProt P08684). The data set is described as follows: Induction of CYP3A4 activity in human hepatocytes at 0.1 to 10 uM. The data set is classed as ADME, cell-based.
A short description of data set [22]: Equilibrium solubility of the compound at pH <4. The data set is classed as physicochemical.
The nature of data set [23]: Clearance in rhesus monkey at 1 mg/kg, po or 0.5 mg/kg, iv. The data set is classed as ADME, organism-based, Macaca mulatta. To be noted: in vivo.
Data set [24] can be described thus: Oral bioavailability in Mongrel dog at 3 mg/kg. The data set is classed as ADME, organism-based, Canis lupus familiaris. To be noted: in vivo.
The nature of data set [25]: Equilibrium solubility of the compound at pH 8 to 10. The data set is classed as physicochemical. To be noted: buffer.
Data set [26] can be described thus: Clearance in Mongrel dog at 3 mg/kg, po or 1 mg/kg, iv. The data set is classed as ADME, organism-based, Canis lupus familiaris. To be noted: in vivo.
The next data set relates to Hepatocyte. Briefly: Induction of CYP3A4 mRNA expression in human hepatocytes at 0.1 to 10 uM. The data set is classed as ADME, cell-based.
For data set [27], the target named is T3, MDR1 (P-gp, ABCB1). The data set is described as follows: Substrate activity at MDR1 (unknown origin) assessed as efflux ratio of permeability from basolateral to apical side over apical to basolateral side. The data set is classed as ADME. To be noted: not told.

Sequence of Cytochrome P450 3A4 (P08684 whole entry): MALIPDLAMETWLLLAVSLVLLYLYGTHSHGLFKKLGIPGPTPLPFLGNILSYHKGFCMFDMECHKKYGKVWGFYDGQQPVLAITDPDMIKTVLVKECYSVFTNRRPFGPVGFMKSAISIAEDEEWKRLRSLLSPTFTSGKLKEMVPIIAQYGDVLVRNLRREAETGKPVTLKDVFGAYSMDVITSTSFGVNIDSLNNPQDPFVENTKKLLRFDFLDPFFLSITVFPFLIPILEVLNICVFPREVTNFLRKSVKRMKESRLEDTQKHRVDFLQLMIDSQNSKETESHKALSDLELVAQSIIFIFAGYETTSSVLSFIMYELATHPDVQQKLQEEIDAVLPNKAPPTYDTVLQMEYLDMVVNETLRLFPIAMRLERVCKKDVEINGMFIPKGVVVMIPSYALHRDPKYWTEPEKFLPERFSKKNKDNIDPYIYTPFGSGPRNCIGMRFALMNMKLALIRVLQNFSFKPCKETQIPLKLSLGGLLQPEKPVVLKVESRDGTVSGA

Turning to `COc1ccc(Cn2cc3c(=O)[nH]nc-3c3ccccc32)cc1`, the IP in data set [1] is 57 µM.
In the case of `COc1ccc(Cc2cc3c(c4ccccc24)CN([C@H]2CCCC[C@@H]2O)C3=O)cc1`, the IP in data set [1] worked out at 0.052 µM.
The same measure, in the same setting: next, `COc1ccc(Cn2cc3c(=O)n(-c4ccccc4F)nc-3c3ccccc32)cc1`: 0.41 µM.
As to `O=c1c2cc(Cc3cccnc3)c3ccccc3c2ncn1[C@H]1CCCC[C@@H]1O` (relative stereo), the solubility kinetic is 34 µM (≈ 13.1 µg/mL) in [2] and 181 µM (≈ 69.8 µg/mL) in data set [5]. For the same compound, the IP in data set [1] is 0.042 µM. For the same compound, the negative-log IC50 (pIC50) (usually the negative decadic logarithm of the IC50, by convention in mol/L) in data set [3] was 4.92. The Ratio in data set [4] is given as 0.5. The logD (usually the decadic logarithm of the distribution of all forms, ionised or not, between an organic phase and buffer at a given pH) in data set [6] stood at 2.4.
Turning to `COc1ccc(Cn2cc3c(=O)onc-3c3ccccc32)cc1`, the IP in data set [1] is more than 100 µM.
In the case of `COc1ccc(Cn2cc(C(=O)O)c(=O)c3ccccc32)cc1`, the IP in data set [1] was 0.66 µM.
For `COc1ccc(Cn2cc3c(=O)n(-c4ccccc4)nc-3c3ccccc32)cc1`, the IP in [1] is 8.9 µM.
Take `Cc1ccc(Cc2cc3c(=O)n([C@H]4CCCC[C@@H]4O)cnc3c3ccccc23)cn1.O=C(O)/C=C/C(=O)O`: the solubility (thermodynamic) (commonly solubility found after equilibrating the solid with the medium) in data set [7] was 2300 µg/mL; in data set [8], 40 µg/mL.
Consider `Cc1ccc(Cc2cc3c(=O)n([C@H]4CCCC[C@@H]4O)cnc3c3ccccc23)cn1` [MK-7622], for which the pIC50 is 5.36 in data set [9], 4.88 on Cytochrome P450 2C9 and 5.68 in data set [18]. Also, the Vd in [10] amounted to 0.94 L/kg; in [11] it was 2.4 L/kg; in data set [12] it was 1.2 L/kg. Moreover, the half-life in data set [13] is 1.3 h; in data set [17] it was 1.8 h; in [20], 8.7 h. Besides, the solubility kinetic in data set [2] is 17 µM (≈ 6.79 µg/mL); in [5] it was 191 µM (≈ 76.3 µg/mL). For the same compound, the clearance in [14] turned out to be 18.9 mL/min/kg; in data set [23], 7.6 mL/min/kg; in data set [26] it was 4.5 mL/min/kg. For the same compound, the bioavailability (usually the share of a dose that reaches the circulation, judged against a reference dose that is usually intravenous) amounted to 56% in data set [15], 40% in [16] and 76% in data set [24]. Besides, the CLint scaled (commonly the capacity of the preparation to metabolise the compound, expressed as a volume cleared per time) in data set [19] came to 15 mL/min/kg. In addition, the apparent permeability (Papp) – broadly, a coefficient for how fast a substance crosses the barrier – at MDR1 (P-gp, ABCB1) [21] came to 33 ×10⁻⁶ cm/s. For the same compound, the Activity result at Cytochrome P450 3A4 and in the data set with Hepatocyte was “Not Active” in each case. Moreover, the solubility (thermodynamic) was 6000 to 9000 µg/mL (≈ 15 to 22.5 mM) in data set [22] and less than 1 µg/mL in data set [25]. Besides, the log distribution coefficient (logD) in data set [6] was 2.6.
In the case of `COc1ccc(Cc2cc3c(=O)n(-c4ccccc4F)cnc3c3ccccc23)cc1`, the IP in data set [1] worked out at 0.82 µM.
Take `O=c1c2cc(Cc3ccc(Cl)nc3)c3ccccc3c2ncn1[C@H]1CCCC[C@@H]1O`: the solubility kinetic in [2] and in data set [5] was less than 2 µM throughout. Besides, the IP in data set [1] was in the range of 0.013 to 0.015 µM. In [3], this compound showed a negative logarithm of the IC50 (pIC50) of 4.89. Further, on MDR1 (P-gp, ABCB1) [27], the efflux ratio – broadly, the permeability from basolateral to apical divided by that in the opposite direction, in the common usage – was 1.1. The Ratio in data set [4] is on record as 0.9. In data set [6], this compound had a logD of 3.1.
For `COc1ccc(Cc2cc3c(=O)n([C@H]4CCCC[C@@H]4O)cnc3c3ccccc23)cc1`, the IP in data set [1] is 0.22 µM.
As for `COc1ccc(Cc2cc3c(=O)n([C@H]4CCCC[C@@H]4O)cnc3c3ccccc23)cn1`, the solubility kinetic in [2] was less than 3 µM; in data set [5], 71 µM (≈ 29.5 µg/mL). Further, the IP in data set [1] was 0.018 µM. This compound also gave a negative logarithm of the IC50 (pIC50) in data set [3] of 5.19. The Ratio in data set [4] stood at 1. Besides, in data set [6], the logD came out at 3.
As for `COc1ccc(Cc2cc3c(=O)n(-c4ccccc4F)ccc3c3ccccc23)cc1`, the IP in data set [1] came to 3.3 µM.
Consider `CSc1ccc(Cc2cc3c(=O)n([C@H]4CCCC[C@@H]4O)cnc3c3ccccc23)cn1`, for which the values for the solubility kinetic in data set [2] and in data set [5] were less than 2 µM and 102 µM (≈ 44 µg/mL), respectively. Further, the IP in data set [1] worked out at 0.021 µM. Further, in data set [3], the negative logarithm of the IC50 (pIC50) is 5.12. In data set [6], the logD stood at 3.2.
